Results on 73 compounds are retold here after patent US20110105472A1, “Diaminopyrimidines as crop protection agents” (Bayer CropScience AG, priority 2008, published 2011).

Holding throughout (format): physicochemical
Data set [1] is described as follows: logP by HPLC on reversed-phase columns (C 18), method [a], acidic range pH 2.3.
Data set [2] in a line: logP by LC-MS, method [b], acidic range pH 2.7. Conditions: pH 2.7.
The nature of data set [3]: physchem. The note with it: pH 7.8.

Marks after values point to notes of the source that are not given here.

Regarding `Cl.Clc1cccc(Nc2ncc(Cl)c(NC3CCC3)n2)c1` [Compound 2-1], the log p in data set [1] (pH 2.3) was 3.09^[a].

Consider `Cl.Clc1cnc(Nc2ccccc2)nc1NC1CCC1` [Compound 2-2], for which the log p in data set [1] (pH 2.3) is 1.97^[a]. Consider `COc1cc(Nc2ncc(Cl)c(NC3CCC3)n2)cc(OC)c1.Cl` [Compound 2-3], for which, in data set [1] (pH 2.3), the log p was 2.23^[a]. The same measure, in the same setting: as for `CC(=O)c1cccc(Nc2ncc(Cl)c(NC3CCC3)n2)c1.Cl` [Compound 2-4], the figure is 2.04^[a]. On the same count and under the same terms, to `CC(C)c1ccc(Nc2ncc(Cl)c(NC3CCC3)n2)cc1.Cl` [Compound 2-5] belongs 2.74^[a]; to `CC(C)Oc1ccc(Nc2ncc(Cl)c(NC3CCC3)n2)cc1.Cl` [Compound 2-6], 2.21^[a]; to `CN(C)S(=O)(=O)c1ccc(Nc2ncc(Cl)c(NC3CCC3)n2)cc1.Cl` [Compound 2-7], 2.58^[a]. On the same count and under the same terms, as for `Cc1ccc(S(=O)(=O)O)cc1.Cc1nc(Nc2ccccc2)nc(NC2CCC2)c1Cl` [Compound 2-8], the figure is 1.95^[a]. Regarding `NS(=O)(=O)c1cccc(Nc2ncc(Cl)c(NC3CCC3)n2)c1` [Compound 23], in data set [1] (method [a], HPLC on reversed-phase C 18, acidic range pH 2.3), the log p was 1.52[a]. For the same compound, in data set [1] (pH 2.3, values given in the preparation examples), the “logP (pH2.3)” value is recorded as 1.52. For `CCCOc1cccc(Nc2ncc(Br)c(NC3CCC3)n2)c1` [Compound 30, 5-Bromo-N^4-cyclobutyl-N^2-(3-propoxyphenyl)pyrimidine-2,4-diamine], the chromatographic logP in data set [1] (pH 2.3) and in data set [2] was 3.27 in each case.

Consider `CC(C)Oc1ccc(Nc2ncc(Cl)c(NC3CCC3)n2)cc1.Cl` [Compound 36, 5-Chloro-N^4-cyclobutyl-N^2-(4-isopropoxyphenyl)pyrimidine-2,4-diamine hydrochloride], for which the chromatographic logP (usually lipophilicity estimated from chromatographic retention) in data set [1] (pH 2.3) is 2.21. In addition, the log p in data set [2] was 2.44[b]. `CC1(Nc2nc(Nc3ccccc3)ncc2Cl)CCC1` [Compound 52, 5-Chloro-N^4-(1-methylcyclobutyl)-N^2-phenylpyrimidine-2,4-diamine]: the chromatographic logP in data set [1] (pH 2.3) and in data set [2] was 2.1 each time. As to `O=C1CCCN1c1cc(Nc2ncc(Cl)c(NC3CCC3)n2)ccc1F` [Compound 212], in data set [1] (pH 2.3), the log p was 1.75[a]. Regarding `O=C1CCCCCN1c1cccc(Nc2ncc(Br)c(NC3CCC3)n2)c1` [Compound 215], the log p in data set [1] (pH 2.3) was 2.08[a]. Still for that read-out and setting: as for `O=C1CCCCCN1c1cccc(Nc2ncc(Cl)c(NC3CCC3)n2)c1` [Compound 216], the figure is 1.96[a]; as for `O=C1CCCCN1c1cccc(Nc2ncc(Br)c(NC3CCC3)n2)c1` [Compound 217], 1.77[a]. For `CC(C#N)c1ccc(Nc2ncc(Cl)c(NC3CCC3)n2)cc1` (centres unmarked) [Compound 234], the log p in data set [3] is 3.45[c]. Turning to `CCSc1cccc(Nc2ncc(C(F)(F)F)c(NC3CCC3)n2)c1` [Compound 235], in data set [3], the log p was 4.8[c]. `Ic1cnc(Nc2ccccc2)nc1NC1CCC1` [Compound 236]: the log p in data set [1] (pH 2.3) was 2.19[a]. As for `CC(C)NC(=O)c1ccc(Nc2ncc(Cl)c(NC3CCC3)n2)cc1` [Compound 248], the log p in data set [3] was 2.68[c]. The same measure, in the same setting: as for `CCN(CC)C(=O)c1ccc(Nc2ncc(Cl)c(NC3CCC3)n2)cc1` [Compound 250], the figure is 3.19[c]; as for `CC(=O)N(C)c1cccc(Nc2ncc(Cl)c(NC3CCC3)n2)c1` [Compound 261], 2.49[c]; as for `O=C(c1cccc(Nc2ncc(Cl)c(NC3CCC3)n2)c1)N1CCOCC1` [Compound 262], 2.39[c].

`Clc1ncc(Cl)c(NC2CCC2)n1` [Compound V-1, 2,5-Dichloro-N-cyclobutylpyrimidine-4-amine] displayed a chromatographic logP in data set [1] (pH 2.3) of 2.62. Same read-out and setting: as for `Clc1ncc(Br)c(NC2CCC2)n1` [Compound V-2, 5-Bromo-2-chloro-N-cyclobutylpyrimidine-4-amine], the figure is 2.87; as for `Clc1ncc(I)c(NC2CCC2)n1` [Compound V-3, 2-Chloro-N-cyclobutyl-5-iodopyrimidine-4-amine], 3.08.

On to `FC(F)(F)c1cnc(Cl)nc1NC1CCC1` [Compound V-4, 2-Chloro-N-cyclobutyl-5-trifluoromethylpyrimidine-4-amine], for which the chromatographic logP in data set [1] (pH 2.3) amounted to 3.2. This chromatographic logP and that of the compound before are within 0.2 log units of each other. `NS(=O)(=O)c1cc(Nc2ncc(Cl)c(NC3CCC3)n2)cc(C(F)(F)F)c1` [compound 24]: in data set [1] (pH 2.3), the log p is 2.7[a].

On to `CNS(=O)(=O)c1ccc(Nc2ncc(Cl)c(NC3CCC3)n2)cc1` [compound 25], for which the log p in data set [1] (pH 2.3) was 2.01[a]. Consider `CCCCNS(=O)(=O)c1ccc(Nc2ncc(Cl)c(NC3CCC3)n2)cc1` [compound 26], for which the log p in data set [1] (pH 2.3) was 2.91[a].

With `NS(=O)(=O)c1ccc(Nc2ncc(Cl)c(NC3CCC3)n2)cc1` [compound 27], the log p in data set [1] (pH 2.3) is 1.62[a]. The same measure, in the same setting: as for `CC(C)(C)OC(=O)N1CCN(c2ccc(Nc3ncc(Cl)c(NC4CCC4)n3)cc2)CC1` [compound 28], the figure is 2.73[a]. With `O=C(Nc1ccc(Nc2ncc(Br)c(NC3CCC3)n2)cc1)OCCCl` [compound 43], the log p in data set [2] is 2.06[b]. `Brc1ccc(Nc2ncc(Br)c(NC3CCC3)n2)cc1` [compound 67]: the log p in data set [2] is 3.18[b].

Turning to `Clc1ccc(Nc2ncc(Br)c(NC3CCC3)n2)cc1` [compound 69], the log p in data set [2] is 2.99[b]. Same read-out and setting: to `N#Cc1cccc(Nc2ncc(Cl)c(NC3CCC3)n2)c1` [compound 107] belongs 2.46[b]; to `FC(F)(F)Oc1cccc(Nc2ncc(Cl)c(NC3CCC3)n2)c1` [compound 112], 3.59[b]; to `CS(=O)(=O)c1ccc(Nc2ncc(Cl)c(NC3CCC3)n2)cc1` [compound 113], 2.09[b].

For `CN(C)S(=O)(=O)c1ccc(Nc2ncc(Cl)c(NC3CCC3)n2)cc1` [compound 114], the log p in data set [2] is 2.53[b]. For the compound `CSc1ccc(Nc2ncc(Cl)c(NC3CCC3)n2)cc1Cl` [compound 115], in data set [2], the log p was 3.22[b].

In the case of `O=C(Nc1ccc(Nc2ncc(Cl)c(NC3CCC3)n2)cc1)C(F)(F)F` [compound 121], the log p in data set [2] was 2.09[b]. The same measure, in the same setting: to `CC1(C(=O)Nc2ccc(Nc3ncc(Cl)c(NC4CCC4)n3)cc2)CC1` [compound 122] belongs 1.87[b]. Consider `C=C(C)C(=O)Nc1cccc(Nc2ncc(Cl)c(NC3CCC3)n2)c1` [compound 124], for which the log p in data set [2] was 1.8[b].

As to `CNC(=O)c1cccc(Nc2ncc(Cl)c(NC3CCC3)n2)c1` [compound 127], the log p in data set [2] is 1.5[b]. On to `O=S(=O)(c1cccc(Nc2ncc(Cl)c(NC3CCC3)n2)c1)N1CCCCC1` [compound 130], for which the log p in data set [2] is 2.3[b]. Regarding `CC(=O)c1ccc(Nc2ncc(Cl)c(NC3CCC3)n2)cc1` [compound 131], the log p in data set [2] is 2.26[b]. The same measure, in the same setting: as for `O=C1OCCN1c1ccc(Nc2ncc(Cl)c(NC3CCC3)n2)cc1` [compound 132], the figure is 1.59[b].

With `O=C1CCCN1c1ccc(Nc2ncc(Cl)c(NC3CCC3)n2)cc1` [compound 133], in data set [2], the log p was 1.66[b]. On the same count and under the same terms, as for `O=C1NC(=O)C(c2ccc(Nc3ncc(Cl)c(NC4CCC4)n3)cc2)N1` (centres unmarked) [compound 134], the figure is 1.33[b]; as for `CCOC(=O)Nc1ccc(Nc2ncc(Cl)c(NC3CCC3)n2)cc1` [compound 136], 1.8[b]; as for `Fc1cc(F)cc(Nc2ncc(Br)c(NC3CCC3)n2)c1` [compound 144], 3.98[b]. Still for that read-out and setting: as for `CC(=O)c1ccc(Nc2ncc(Br)c(NC3CCC3)n2)cc1` [compound 145], the figure is 2.65[b]; as for `CCOC(=O)Nc1ccc(Nc2ncc(Br)c(NC3CCC3)n2)cc1O` [compound 151], 1.8[b]. Still for that read-out and setting: to `COC(=O)c1ccc(Nc2ncc(Br)c(NC3CCC3)n2)cc1` [compound 158] belongs 2.84[b]. In the case of `FC(F)C(F)(F)Oc1ccc(Nc2ncc(Br)c(NC3CCC3)n2)cc1` [compound 159], the log p in data set [2] is 3.1[b].

`CCCCC(=O)Oc1ccc(Nc2ncc(Br)c(NC3CCC3)n2)cc1` [compound 161]: the log p in data set [2] was 4.32[b]. On the same count and under the same terms, as for `CC(=O)N(c1ccc(Nc2ncc(Br)c(NC3CCC3)n2)cc1)C1CCCCC1` [compound 163], the figure is 2.7[b].

Take `O=C(Nc1cccc(Nc2ncc(Br)c(NC3CCC3)n2)c1)c1ccccc1` [compound 168]: the log p in data set [2] was 2.46[b]. On the same count and under the same terms, to `CC(C)C(=O)Nc1ccc(Nc2ncc(Br)c(NC3CCC3)n2)cc1` [compound 169] belongs 1.83[b]; to `FC(F)C(F)(F)Oc1cccc(Nc2ncc(Br)c(NC3CCC3)n2)c1` [compound 170], 3.37[b]; to `FC(F)(F)Oc1cccc(Nc2ncc(Br)c(NC3CCC3)n2)c1` [compound 182], 4.15[b]. Same read-out and setting: as for `FC(F)(F)Oc1ccc(Nc2ncc(Br)c(NC3CCC3)n2)cc1` [compound 183], the figure is 3.73[b].

As to `CC1(C(=O)Nc2ccc(Nc3ncc(Br)c(NC4CCC4)n3)cc2)CC1` [compound 189], the log p in data set [2] is 2[b]. Still for that read-out and setting: to `O=S(=O)(c1ccc(Nc2ncc(Br)c(NC3CCC3)n2)cc1)C(F)(F)F` [compound 193] belongs 4.32[b]. The same measure, in the same setting: to `CCC(=O)c1cc(Nc2ncc(Br)c(NC3CCC3)n2)ccc1O` [compound 194] belongs 2.39[b]; to `Cc1cc(O)ccc1Nc1ncc(Br)c(NC2CCC2)n1` [compound 198], 1.47[b]; to `O=C(Nc1cccc(Nc2ncc(Br)c(NC3CCC3)n2)c1)Oc1ccccc1` [compound 199], 2.51[b]. On the same count and under the same terms, to `Clc1cnc(Nc2ccc(NC3CC3)cc2)nc1NC1CCC1` [compound 207] belongs 0.71[b]; to `CNc1ccc(Nc2ncc(Br)c(NC3CCC3)n2)cc1` [compound 213], 1.18[b]. With `Clc1cnc(Nc2ccc(I)cc2)nc1NC1CCC1` [compound 230], the log p in data set [2] is 3.49[b]. Same read-out and setting: to `CC1(Nc2nc(Nc3ccccc3)ncc2C(F)(F)F)CCC1` [compound 232] belongs 3.36[b]. On to `CN(c1nc(Nc2ccccc2)ncc1Cl)C1CCC1` [compound 245], for which, in data set [1] (pH 2.3), the log p is 3.32[a]. On to `CC(C)(C)c1cccc(Nc2ncc(Cl)c(NC3CCC3)n2)c1` [compound 255], for which the log p in data set [2] was 3.26[b].
